{
  "source": "patent US20190083498A1",
  "about": "“THERAPIES FOR HEMATOLOGIC MALIGNANCIES” (GILEAD CALISTOGA LLC, priority 2008, published 2019)",
  "key": {"[1]": {"system": "CLL cells on StromaNKTert", "assay": "Calcein-based adhesion assay of CLL cells on stroma", "type": "cell-based, human", "description": "Calcein-based adhesion assay: a confluent monolayer of CD154+ L or StromaNKTert cells was generated by plating 1×10^4 cells/well in 96-well plates for 24 hours. Single cell suspensions of CLL cells at 0.5×10^6 cells/ml were then labeled with 1 μg/mL Calcein-AM (Invitrogen) for 1 hour. Cells were then spun down and treated with compound or vehicle for 1 to 24 hours. Non-adherent cells were washed off by aspiration. CLL cell adhesion was quantified by fluorimetry (Ex/Em=485/520 nm), and visualized directly using the Nikon TE2000 inverted live-cell imaging system."}, "pAKT": {"system": "pAKT", "assay": "pAKT in DLBCL cell lines", "type": "cell-based"}, "Phospho-Akt": {"system": "Phospho-Akt", "assay": "Phospho-Akt production in patient AML cells", "type": "cell-based, human", "conditions": "0.1, 1.0, 10 μM", "source_text": "PI3Kδ is implicated in signaling in AML patient cells."}, "CCRF-SB cells": {"system": "CCRF-SB cells", "assay": "Cell cycle FACS analysis, propidium iodide", "type": "cell-based", "conditions": "CCRF-SB ALL cell line", "description": "Representative fluorescence-activated cell sorting (FACS) analysis of propidium iodide-stained CCRF-SB cells under normal growth conditions, and growth in the presence of the compound of formula I. The average percentage of cells in G0-G1, S, and G2-M phases is calculated in the table below the histographs."}, "[2]": {"system": "patient chronic lymphocytic leukemia (CLL) cells", "assay": "Apoptosis of patient CLL cells, Annexin V-FITC/PI flow cytometry", "type": "cell-based, human", "description": "Peripheral blood was obtained from patients with B-CLL through the CLL Research Consortium from Ohio State University. Primary CD19-positive cells were isolated using Rosette-Sep (StemCell Technologies). Cells were maintained in RPMI 1640 (Invitrogen) supplemented with 10% heat-inactivated fetal bovine serum, 2 mmol/L L-glutamine, and penicillin (100 units/mL)/streptomycin (100 μg/mL; Invitrogen) at 37° C., 5% CO2, and high humidity. After incubation with the compound of formula I or medium for 96 hours, 5×10^5 cells were washed with PBS and then resuspended in binding buffer (10 mmol/L HEPES/NaOH, pH 7.4, 150 mmol/L NaCl 5 mmol/L KCl, 1 mmol/L MgCl2, 1.8 mmol/L CaCl2) containing 2 μL of Annexin V-FITC stock (BioWhittaker, Inc) and 10 μL of 20 μg/mL PI (Sigma). After incubation for 10 minutes at room temperature in a light-protected area, the specimens were quantified by flow cytometry on a FACScan™ (Becton Dickinson)."}, "[3]": {"system": "IGROV-1 and OVCAR-3 cell lines", "assay": "Proliferation of ovarian cancer cell lines, AlamarBlue", "type": "cell-based", "conditions": "IGROV-1 and OVCAR-3, with serum", "description": "IGROV-1 and OVCAR-3 cell lines were grown in the presence of serum plus the indicated concentrations of the compound of formula I. Proliferation was measured in triplicate wells by AlamarBlue assay (Invitrogen) 96-well plates."}, "LB and INA-6 cells": {"system": "LB and INA-6 cells", "assay": "MM cell DNA synthesis with IL-6 or IGF-1, [3H]-thymidine incorporation", "type": "cell-based, human", "conditions": "5.0 or 10 μM; IL-6 1 and 10 ng/ml, IGF-1 10 and 100 ng/mL", "description": "DNA synthesis was determined by measuring [3H]-thymidine incorporation during the last 8 h of 72 h cultures. Data represent means (±SD) of triplicate cultures."}, "primary MCL cells": {"system": "primary MCL cells", "assay": "Constitutive PI3K signaling in primary MCL cells", "type": "cell-based, human", "conditions": "two patients; dose dependent; 0.1 μM or 1 μM"}, "LB and INA-6 MM cells": {"system": "LB and INA-6 MM cells", "assay": "Growth inhibition of p110δ-positive MM cell lines, MTT", "type": "cell-based, human", "conditions": "48 h"}, "INA-6 cells": {"system": "INA-6 cells", "assay": "Cleavage of caspases and PARP, western blot", "type": "cell-based, human", "conditions": "0-5 μM, 120 h", "source_text": "Whole-cell lysates were subjected to sodium dodecyl sulfate-polyacrylamide gel electrophoresis (SDS-PAGE) separation, transferred to Pure Nitrocellulose membranes (Bio-Rad Laboratories, Hercules, Calif.), and immunoblotted with anti-AKT, phospho(p)-AKT (Ser473, Thr 308), ERK1/2 , P-ERK1/2, P-PDK1, STAT, P-STAT, P-FKRHL, P-70S6K, LC3, and PI3K/p110 α Abs (Cell Signaling Danvers, Mass.); anti-p110β, PI3K/p110δ, Glyceraldehyde 3-phosphate dehydrogenase (GAPDH), α-tubulin, and actin Abs (Santa Cruz Biotechnology, Calif.); and anti-p110 γ Ab (Alexis, San Diego, Calif.): and anti-LC3 Ab (Abgent, San Diego, Calif.).\nTotal cell lysates were subjected to immunoblotting using anti-caspase-3, -8, -9, PARP, and α-tubulin Abs. FL indicates full-length protein, and CL indicates cleaved protein."}, "patient MM cells": {"system": "patient MM cells", "assay": "Viability of patient MM cells, MTT", "type": "cell-based, human", "conditions": "48 h", "text": "Patient MM and BM cells were obtained from BM samples after informed consent was obtained per the Declaration of Helsinki and approval by the Institutional Review Board of the Dana-Farber Cancer Institute (Boston, Mass.). BM mononuclear cells were separated using Ficoll-Paque™ density sedimentation, and plasma cells were purified (>95% CD138+) by positive selection with anti-CD138 magnetic activated cell separation micro beads (Miltenyi Biotec, Auburn, Calif.). Tumor cells were also purified from the BM of MM patients using the RosetteSep negative selection system (StemCell Technologies, Vancouver, BC, Canada).\nData represent mean ±SD viability, assessed by MTT assay of triplicate cultures, expressed as percentage of untreated controls."}, "[4]": {"system": "LB and INA-6 MM cells with BMSCs", "assay": "Paracrine MM cell growth, cytokine secretion and signaling with BMSCs", "type": "cell-based, human", "conditions": "48 h", "description": "MM cells (2×10^4 cells/well) were cultured for 48 h in BMSC coated 96-well plates (Costar, Cambridge, Mass.), in the presence or absence of drug. DNA synthesis was measured by [3H]-thymidine (Perkin-Elmer, Boston, Mass.) uptake, with [3H]-thymidine (0.5μ Ci/well) added during the last 8 h of 48 h cultures. All experiments were performed in quadruplicate.\nCytokine secretion by human BMSCs cocultured with MM cells was assessed by ELISA. […] After 48 h, supernatants were harvested and stored at −80° C. Cytokines were measured using Duo set ELISA Development Kits (R&D Systems, Minneapolis, Minn.). All measurements were carried out in triplicate.\nThe cytokine levels in culture supernatants were assessed using Proteome Profiler Antibody Arrays Panel A (R&D Systems, Minneapolis, Minn.), Supernatants from co-cultures with BMSCs were incubated for 4 hours with membranes arrayed with Abs against 37 cytokines, according to manufacturer's instructions.\nDNA synthesis was determined by [3H]-thymidine incorporation. Data represent means (±SD) of triplicate cultures.\nError bars indicate SD (±).\nINA-6 cells cultured with or without BMSCs were treated with compound for 48 h. Total cell lysates were subjected to immunoblotting using indicated antibodies, FIG. 34F. Actin was used as a loading control."}, "HuVECs": {"system": "HuVECs", "assay": "In vitro angiogenesis assay, endothelial cell tube formation", "type": "cell-based, human", "conditions": "0, 1.0, or 10 μM; 8 h", "description": "HUVEC and endothelial growth media were obtained from Lonza (Walkersville, Md., USA). […] After 8 h, tube formation was evaluated using Leika DM IL microscopy (Leica Microsystems, Wetzlar, Germany) and analyzed with IM50 software (Leica Microsystems Imaging Solutions, Cambridge, UK). HUVEC cell migration and rearrangement was visualized, and the number of branching points counted.\nThe effect of P110 δ inhibition on angiogenesis was investigated."}},
  "data": [
    {"smiles": "CC[C@H](Nc1ncnc2[nH]cnc12)c1nc2cccc(F)c2c(=O)n1-c1ccccc1", "note": "[Compound I, 5-fluoro-3-phenyl-2-[1-(9H-purin-6-ylamino)-propyl]-3H-quinazolin-4-one]", "values": [
      {"measurement": "CLL cell adherence to stroma after one hour", "setting": "[1]", "result": "reduced adherence"},
      {"measurement": "CLL cell adherence to stroma at 24 hours", "setting": "[1]; 10 μM", "result": "less adherent"},
      {"measurement": "pAKT levels in DLBCL cell lines", "setting": "pAKT", "result": "reduces pAKT levels"},
      {"measurement": "phospho-Akt production in patient AML cells", "setting": "Phospho-Akt", "result": "reduces phopsho-Akt production"},
      {"measurement": "cell cycle effect", "setting": "CCRF-SB cells", "result": "G0/G1 cell cycle arrest"},
      {"measurement": "apoptosis of CLL cells from poor prognosis patients", "setting": "[2]", "result": "induced apoptosis was seen"},
      {"measurement": "apoptosis of CLL cells from refractory/relapsed patients", "setting": "[2]", "result": "induced apoptosis was also seen to be effective"},
      {"measurement": "apoptosis of CLL patient cells", "setting": "[2]; 96 hours", "result": "results in apoptosis"},
      {"measurement": "proliferation of ovarian cancer cell lines", "setting": "[3]", "result": "inhibits proliferation"},
      {"measurement": "growth inhibition in the presence of IL-6 or IGF-1", "setting": "LB and INA-6 cells", "result": "Neither IL-6 nor IGF-1 protected"},
      {"measurement": "constitutive PI3K signaling in primary MCL cells", "setting": "primary MCL cells", "result": "block constitutive PI3K signaling"},
      {"measurement": "cytotoxicity against p110δ-positive MM cells", "setting": "LB and INA-6 MM cells", "result": "induced cytotoxicity"},
      {"measurement": "cleavage of caspase-8, caspase-9, caspase-3, and PARP", "setting": "INA-6 cells", "result": "Significantly increased cleavage"},
      {"measurement": "cytotoxicity against patient MM cells", "setting": "patient MM cells", "result": "induced cytotoxicity"},
      {"measurement": "MM cell growth induced by BMSCs", "setting": "[4]; 2.5, 5, 10 μM", "result": "inhibited"},
      {"measurement": "cytokine secretion induced by BMSCs", "setting": "[4]; ELISA, cytokine arrays", "result": "inhibited"},
      {"measurement": "phosphorylation of AKT and ERK induced by BMSCs", "setting": "[4]; INA-6 with BMSCs", "result": "inhibited"},
      {"measurement": "capillary-like tube formation", "setting": "HuVECs", "result": "inhibited capillary-like tube formation in a dose-dependent fashion"}
    ]}
  ]
}
